Experimental data reported in patent publication US5756532A, “Aminomethyl-2 3 8 9-tetrahydro-7H-1 4-dioxino[2 3-E]-indol-8-ones and derivatives” (American Home Products Corporation, priority 1996, dated 1998).

What was measured:
[1] = tested on: dopamine autoreceptor; experiment: GBL model: effect on synthesis of dopamine (inhibition of dopa accumulation); assay type: in vivo, rat (male, Sprague-Dawley); conditions: rat, 10 mg/kg, sc; GBL 750 mg/kg ip, NSD-1015 100 mg/kg ip
Method: The effect of the compounds of the invention on the synthesis of dopamine was established by the method of Walters and Roth, Naunyn-Schmiedeberg's Arch. Pharmacol. 296:5-14, 1976, in which rats (male, Sprague-Dawley, Charles River, 200-350 g) were administered vehicle or test drug ten minutes prior to the administration of gamma butyrolactone (GBL; 750 mg/kg, ip to inhibit dopaminergic impulse flow) and 20 minutes prior to NSD-1015 (100 mg/kg, ip to prevent the conversion of dopa to dopamine). Thirty minutes after NSD-1015 all rats were decapitated and the nucleus accumbens and the striatum were removed for analysis. Following perchloric acid extraction of the tissue, the extracts were placed over alumina columns to collect and concentrate dopa and other catechols. This eluate was then subjected to HPLC analysis using electrochemical detection to quantify the levels of dopa present. Dopamine autoreceptor agonists, under the conditions used above, inhibit dopa accumulation. […]

[2] = tested on: mouse locomotor activity; experiment: Reduction of mouse locomotor activity (hypolocomotion); assay type: in vivo, mouse (male, CF-1); conditions: 20 min, sc, horizontal activity counts collected 10 to 20 minutes after dosing
Method: The antipsychotic activity of the compounds of the invention was further established by a determination of the compounds' ability to reduce mouse locomotor activity according to the method of Martin and Bendensky, J. Pharmacol. Exp. Therap. 229: 706-711, 1984, in which mice (male, CF-1, Charles River, 20-30 g) were injected with vehicle or various doses of each drug and locomotor activity was measured for 30 minutes using automated infrared activity monitors (Omnitech-8×8 inch open field) located in a darkened room. ED50 's were calculated from the horizontal activity counts collected from 10 to 20 minutes after dosing using a nonlinear regression analysis with inverse prediction.

[3] = biological target: T1, dopamine D2 receptor (Rattus norvegicus, UniProt P61169); experiment: Affinity for the dopamine D2 receptor (3H-quinpirole, rat striatal brain tissue homogenate); assay type: binding; conditions: homogenized rat striatal brain tissue
T1 construct: homogenized rat striatal brain tissue; from tissue; host or cells: rat striatum (homogenate)
Method: Affinity for the dopamine D2 receptor was established by a modification of the standard experimental test procedure of Seemen and Schaus, European Journal of Pharmacology 203: 105-109, 1991, wherein homogenized rat striatal brain tissue is incubated with ^3 H-quinpirole and various concentrations of test compound, filtered and washed and counted in a Betaplate scintillation counter.

T1 sequence (P61169 whole entry): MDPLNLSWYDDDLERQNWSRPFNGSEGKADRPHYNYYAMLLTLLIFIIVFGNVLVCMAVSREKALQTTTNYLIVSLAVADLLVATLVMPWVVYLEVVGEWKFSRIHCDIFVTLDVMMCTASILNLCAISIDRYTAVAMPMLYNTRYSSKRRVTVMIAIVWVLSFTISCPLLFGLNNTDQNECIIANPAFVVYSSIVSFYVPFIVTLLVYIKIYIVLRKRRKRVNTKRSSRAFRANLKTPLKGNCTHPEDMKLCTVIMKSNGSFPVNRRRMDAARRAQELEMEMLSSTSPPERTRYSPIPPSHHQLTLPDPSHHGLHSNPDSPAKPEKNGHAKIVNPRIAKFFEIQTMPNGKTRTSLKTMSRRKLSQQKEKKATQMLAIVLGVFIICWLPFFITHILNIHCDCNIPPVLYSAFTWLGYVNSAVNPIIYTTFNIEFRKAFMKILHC

Compound	inhibition of dopa accumulation [1] [%]	ED50 [2] [µg/kg]	IC50 [3] [nM]
O=C1Cc2c(ccc3c2O[C@@H](CNCc2ccccc2)CO3)N1 [Example 1]	67.5	3.1	0.37
O=C1Cc2c(ccc3c2O[C@H](CNCc2ccccc2)CO3)N1 [Example 15, 2-(Benzylamino-methyl)-2,3,8,9-tetrahydro-7H-4-dioxino[2,3-e]indol-8-one]		90	3.33
O=C1Cc2c(ccc3c2O[C@@H](CNCC24CC5CC(CC(C5)C2)C4)CO3)N1 [Example 14]		8	0.43
